Columns and labels:
[1] = target: T1, Low molecular weight phosphotyrosine protein phosphatase (Homo sapiens) (UniProt P24666); experiment: Inhibition of LMW-PTP isoform A (unknown origin)
T1 sequence (whole entry): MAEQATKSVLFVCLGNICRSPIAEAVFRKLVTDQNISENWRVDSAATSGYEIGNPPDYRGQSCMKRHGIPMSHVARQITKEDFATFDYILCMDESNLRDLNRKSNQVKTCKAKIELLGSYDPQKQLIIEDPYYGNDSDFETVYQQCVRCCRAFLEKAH

[2] = target: T1, Low molecular weight phosphotyrosine protein phosphatase (Homo sapiens); experiment: Inhibition of LMW-PTP isoform B (unknown origin)
Homo sapiens = species: Homo sapiens; experiment: Selectivity index, ratio of Ki for LMW-PTP isoform B (unknown origin) to Ki for LMW-PTP isoform A (unknown origin)
[3] = target: T2, Low molecular weight phosphotyrosine protein phosphatase (Homo sapiens, UniProt P24666); experiment: Competitive inhibition of LMW-PTP isoform A (unknown origin)
T2 sequence (P24666 whole entry): T1 sequence (whole entry)

[4] = Competitive inhibition of bovine LMW-PTP isoform B using para-Nitrophenyl phosphate as substrate at pH 5 by Lineweaver-Burk double reciprocal plot analysis; design: species or system Bos taurus

Structure (SMILES) | Kis [1] [µM] | Kis [2] [µM] | Ratio (Homo sapiens) | Ki [3] [µM] | Ki [4] [µM]
Cc1ccc(/C=C/P(=O)(O)O)cc1O | 50.3 | 42.4 | 0.8 | – | –
O=P(O)(O)C(F)(F)Cc1ccccc1 | 359 | > 10000 | > 28 | – | –
O=P(O)(O)/C=C/c1ccccc1 | 482 | > 10000 | > 21 | – | –
Cc1ncc(/C=C/P(=O)(O)O)c(CO)c1O | 16.3 | 6060 | 372 | – | –
O=P(O)(O)/C=C/c1cccnc1 | 243 | 1070 | 4.4 | – | –
Cc1ccc(CCP(=O)(O)O)cn1 | 1.84 | 15.6 | 8.5 | – | –
O=P(O)(O)CCc1cccnc1 | 103 | 1080 | 10.4 | – | –
Cc1ncc(COP(=O)(O)O)c(C=O)c1O [PYRIDOXAL PHOSPHATE ANHYDROUS] | – | – | – | 13 | 7.6
Cc1ncc(/C=C/P(=O)(O)O)c(C=O)c1O | 5.14 | 113 | 22 | – | –
Cc1ncc(CCP(=O)(O)O)c(CO)c1O | 10.4 | 552 | 53 | – | –
O=P(O)(O)CCc1cccc(O)c1 | 13 | 52.2 | 4 | – | –
Cc1ncc(CCP(=O)(O)O)c(C=O)c1O | 74.9 | 218 | 2.9 | – | –
Cc1ccc(/C=C/P(=O)(O)O)cc1 | 66.8 | 323 | 4.8 | – | –
Cc1ccc(CCP(=O)(O)O)cc1O | 3.59 | 39.9 | 11 | – | –
O=P(O)(O)CCc1ccccc1 | 552 | > 10000 | > 18 | – | –
O=P(O)(O)/C=C/c1cccc(O)c1 | 15.7 | 580 | 37 | – | –
Cc1ccc(CCP(=O)(O)O)cc1 | 130 | 323 | 2.5 | – | –
Cc1ccc(/C=C/P(=O)(O)O)cn1 | 213 | 842 | 4 | – | –

Source: ChEMBL document CHEMBL4622948, “SAR of non-hydrolysable analogs of pyridoxal 5'-phosphate against low molecular weight protein tyrosine phosphatase isoforms” (Bioorg Med Chem Lett, 2020)
